# Patent US20090023731A1, “SOLUBLE EPOXIDE HYDROLASE INHIBITORS” (Arete Therapeutics, Inc., priority 2007, published 2009)
# Tested on: soluble epoxide hydrolase (sEH)
# Experiment: Fluorescent assay for mouse and human soluble epoxide hydrolase (CMNPC substrate)
# Type: biochemical
# Details: inhibitor conc. 50 nM
# Protocol: Recombinant mouse sEH (MsEH) and human sEH (HsEH) were produced in a baculovirus expression system as previously reported. […] The expressed proteins were purified from cell lysate by affinity chromatography. […] Protein concentration was quantified using the Pierce BCA assay using bovine serum albumin as the calibrating standard.
# The IC50s for each inhibitor were according to the following procedure:
# Bis/Tris HCl 25 mM pH 7.0 containing 0.1 mg/mL of BSA (buffer A) CMNPC at 0.25 mM in DMSO.
# Mother solution of enzyme in buffer A (Mouse sEH at 6 μg/mL and Human sEH at 5 μg/mL). Inhibitor dissolved in DMSO at the appropriate concentration.
# In a black 96 well plate, fill all the wells with 150 μL of buffer A.
# Add 2 μL of DMSO in well A2 and A3, and then add 2 μL of inhibitor solution in A1 and A4 through A12.
# Add […] of buffer A in row A, then mix several time and transfer […] to row B. Repeat this operation up to row H. The […] removed from row H is discarded.
# Add […] of buffer A in column 1 and 2, then add […] of enzyme solution to column 3 to 12.
# Incubate the plate for 5 minutes in the plate reader at 30° C.
# During incubation prepare the working solution of substrate by mixing 3.68 mL of buffer A (4×0.920 mL) with 266 μL (2×133 μL) of substrate solution).
# The velocities are used to analyze and calculate the IC50s.
row,Structure (SMILES),% Inh [%]
1,"O=C(Nc1ccc(C(F)(F)F)cc1)Nc1cccc(OCCCN2CCOCC2)c1 [Compound 9, 1-[3-(3-Morpholin-4-yl-propoxy)-phenyl]-3-(4-trifluoromethyl-phenyl)-urea]",82
2,"O=C(CC12CC3CC(CC(C3)C1)C2)Nc1ccc(OCCCN2CCOCC2)cc1 [Compound 46, 2-Adamantan-1-yl-N-[4-(3-morpholin-4-yl-propoxy)-phenyl]-acetamide]",93
3,"O=C(Nc1ccc(Cl)cc1)Nc1cccc(OCCCN2CCOCC2)c1 [Compound 15, 1-(4-Chloro-phenyl)-3-[3-(3-morpholin-4-yl-propoxy)-phenyl]-urea]",94
4,"O=C(CC1CCCCC1)Nc1cccc(OCCCN2CCOCC2)c1 [Compound 51, 2-Cyclohexyl-N-[3-(3-morpholin-4-yl-propoxy)-phenyl]-acetamide]",61
5,"O=C(Nc1ccc(OCCCN2CCOCC2)cc1)Nc1ccc(OC(F)(F)F)cc1 [Compound 34, 1-[4-(3-Morpholin-4-yl-propoxy)-phenyl]-3-(4-trifluoromethoxy-phenyl)-urea]",91
6,"O=C(CC12CC3CC(CC(C3)C1)C2)Nc1cccc(OCCCN2CCOCC2)c1 [Compound 43, 2-Adamantan-1-yl-N-[3-(3-morpholin-4-yl-propoxy)-phenyl]-acetamide]",93
7,"O=C(Nc1ccc(OC(F)(F)F)cc1)Nc1cccc(OCCCN2CCOCC2)c1 [Compound 28, 1-[3-(3-Morpholin-4-yl-propoxy)-phenyl]-3-(4-trifluoromethoxy-phenyl)-urea]",90
8,"O=C(Nc1ccc(OC(F)(F)F)cc1)Nc1ccc(F)c(OCCCN2CCOCC2)c1 [Compound 33, 1-[4-Fluoro-3-(3-morpholin-4-yl-propoxy)-phenyl]-3-(4-trifluoromethoxy-phenyl)-urea]",83
9,"O=C(Nc1ccc(Cl)cc1)Nc1ccc(OCCCN2CCOCC2)cc1 [Compound 26, 1-(4-Chloro-phenyl)-3-[4-(3-morpholin-4-yl-propoxy)-phenyl]-urea]",88
10,"O=C(Nc1ccc(OCCCN2CCOCC2)cc1)Nc1ccc(C(F)(F)F)cc1 [Compound 21, 1-[4-(3-Morpholin-4-yl-propoxy)-phenyl]-3-(4-trifluoromethyl-phenyl)-urea]",96
11,"O=C(Nc1ccc(F)c(OCCCN2CCOCC2)c1)NC12CC3CC(CC(C3)C1)C2 [Compound 53, 1-Adamantan-1-yl-3-[4-fluoro-3-(3-morpholin-4-yl-propoxy)-phenyl]-urea]",92
12,"O=C(NC1CCCC(OCCCN2CCOCC2)C1)NC12CC3CC(CC(C3)C1)C2 (centres unmarked) [Compound 48, 1-Adamantan-1-yl-3-[3-(3-morpholin-4-yl-propoxy)-cyclohexyl]-urea]",94
13,"O=C(Nc1ccc(C(F)(F)F)cc1)Nc1ccc(F)c(OCCCN2CCOCC2)c1 [Compound 32, 1-[4-Fluoro-3-(3-morpholin-4-yl-propoxy)-phenyl]-3-(4-trifluoromethyl-phenyl)-urea]",87
14,"O=C(Nc1cccc(OCCCN2CCOCC2)c1)NC12CC3CC(CC(C3)C1)C2 [Compound 47, 1-Adamantan-1-yl-3-[3-(3-morpholin-4-yl-propoxy)-phenyl]-urea]",99
15,"O=C(Nc1cccc(OCCCN2CCOCC2)c1)NC1CCCCC1 [Compound 41, 1-Cyclohexyl-3-[3-(3-morpholin-4-yl-propoxy)-phenyl]-urea]",96

# Same assay, conditions: inhibitor conc. 200 nM
row,Structure (SMILES),% Inh [%]
1,"O=C(NCCc1ccc(OCc2ccccc2)cc1)NCC12CC3CC(CC(C3)C1)C2 [Compound 73, 1-(4-(benzyloxy)phenethyl)-3-(adamantylmethyl)urea]",97

# Same assay, conditions: inhibitor conc. 500 nM
row,Structure (SMILES),% Inh [%]
1,"O=C(Nc1ccc(F)cc1)Nc1ccc(F)c(OCCCN2CCOCC2)c1 [Compound 31, 1-[4-Fluoro-3-(3-morpholin-4-yl-propoxy)-phenyl]-3-(4-fluoro-phenyl)-urea]",78
2,"O=C(CC12CC3CC(CC(C3)C1)C2)NC1CCC(OCCCN2CCOCC2)CC1 (centres unmarked) [Compound 50, 2-Adamantan-1-yl-N-[4-(3-morpholin-4-yl-propoxy)-cyclohexyl]-acetamide]",85
3,"O=C(Nc1ccc(OCCN2CCOCC2)cc1)Nc1cccc(OCCCN2CCOCC2)c1 [Compound 18, 1-[4-(2-Morpholin-4-yl-ethoxy)-phenyl]-3-[3-(3-morpholin-4-yl-propoxy)-phenyl]-urea]",66
4,"O=C(Nc1ccc(Cl)cc1)Nc1ccc(F)c(OCCCN2CCOCC2)c1 [Compound 30, 1-(4-Chloro-phenyl)-3-[4-fluoro-3-(3-morpholin-4-yl-propoxy)-phenyl]-urea]",96
5,"O=C(Cc1ccc(Cl)cc1)Nc1cccc(OCCCN2CCOCC2)c1 [Compound 22, 2-(4-Chloro-phenyl)-N-[3-(3-morpholin-4-yl-propoxy)-phenyl]-acetamide]",73
6,"O=C(Nc1cccc(OCCCN2CCOCC2)c1)Nc1ccc(F)cc1F [Compound 5, 1-(2,4-Difluoro-phenyl)-3-[3-(3-morpholin-4-yl-propoxy)-phenyl]-urea]",78
7,"O=C(Nc1cccc(OCCCN2CCOCC2)c1)Nc1ccc2c(c1)OCO2 [Compound 8, 1-Benzo[1,3]dioxol-5-yl-3-[3-(3-morpholin-4-yl-propoxy)-phenyl]-urea]",91
8,"O=C(CC12CC3CC(CC(C3)C1)C2)Nc1ccc(F)c(OCCCN2CCOCC2)c1 [Compound 52, 2-Adamantan-1-yl-N-[4-fluoro-3-(3-morpholin-4-yl-propoxy)-phenyl]-acetamide]",93
9,"O=C(Cc1ccc(Cl)cc1)Nc1ccc(OCCCN2CCOCC2)cc1 [Compound 20, 2-(4-Chloro-phenyl)-N-[4-(3-morpholin-4-yl-propoxy)-phenyl]-acetamide]",72
10,"O=C(Nc1ccccc1)Nc1ccc(OCCCN2CCOCC2)cc1 [Compound 14, 1-[4-(3-Morpholin-4-yl-propoxy)-phenyl]-3-phenyl-urea]",90
11,"O=C(Nc1cccc(OCCCN2CCOCC2)c1)c1ccc(C(F)(F)F)cc1 [Compound 36, N-[3-(3-Morpholin-4-yl-propoxy)-phenyl]-4-trifluoromethyl-benzamide]",79
12,"O=C(Nc1ccc(Oc2cccc(C(=O)O)c2)cc1)Nc1ccc(C(F)(F)F)cc1 [Compound 60, 3-(4-(3-(4-(trifluoromethyl)phenyl)ureido)phenoxy)benzoic acid]",92
13,"O=C(CNC12CC3CC(CC(C3)C1)C2)Nc1cccc(OCCCN2CCOCC2)c1 [Compound 58, 2-(Adamantan-1-ylamino)-N-[3-(3-morpholin-4-yl-propoxy)-phenyl]-acetamide]",81

# Same assay, conditions: inhibitor conc. 2000 nM
row,Structure (SMILES),% Inh [%]
1,"O=C(Nc1ccc(OC(F)(F)F)cc1)N[C@H]1CC[C@H](Oc2ccc(C(=O)O)cc2)CC1 [Compound 74, 4-((1r,4r)-4-(3-(4-(trifluoromethoxy)phenyl)ureido)cyclohexyloxy)benzoic acid]",100
2,O=C(Nc1ccc(C(F)(F)F)cc1)N[C@H]1CC[C@H](Oc2ccc(C(=O)O)cc2)CC1 [Compound 75],95
3,"O=C(Nc1ccc(Oc2ccc(C(=O)O)cc2)cc1)Nc1ccc(OC(F)(F)F)cc1 [Compound 64, 4-(4-(3-(4-(trifluoromethoxy)phenyl)ureido)phenoxy)benzoic acid]",100

# Same assay, conditions: inhibitor conc. 5000 nM
row,Structure (SMILES),% Inh [%]
1,"O=C(Cc1ccc2c(c1)OCO2)Nc1cccc(OCCCN2CCOCC2)c1 [Compound 12, 2-Benzo[1,3]dioxol-5-yl-N-[3-(3-morpholin-4-yl-propoxy)-phenyl]-acetamide]",87
2,"CN(C)c1cccc(NC(=O)Nc2cccc(OCCCN3CCOCC3)c2)c1 [Compound 17, 1-(3-Dimethylamino-phenyl)-3-[3-(3-morpholin-4-yl-propoxy)-phenyl]-urea]",95
3,"O=C(Cc1ccc(OC(F)(F)F)cc1)Nc1ccc(OCCCN2CCOCC2)cc1 [Compound 35, N-[4-(3-Morpholin-4-yl-propoxy)-phenyl]-2-(4-trifluoromethoxy-phenyl)-acetamide]",93
4,"O=C(Cc1ccc(F)c(F)c1)Nc1cccc(OCCCN2CCOCC2)c1 [Compound 19, 2-(3,4-Difluoro-phenyl)-N-[3-(3-morpholin-4-yl-propoxy)-phenyl]-acetamide]",92
5,"O=C(Cc1ccc(F)cc1)Nc1cccc(OCCCN2CCOCC2)c1 [Compound 11, 2-(4-Fluoro-phenyl)-N-[3-(3-morpholin-4-yl-propoxy)-phenyl]-acetamide]",85
6,"O=C(Nc1cccc(OCCCN2CCOCC2)c1)C1CCCCC1 [Compound 56, Cyclohexanecarboxylicacid [3-(3-morpholin-4-yl-propoxy)-phenyl]-amide]",94
7,"O=C(Cc1ccccc1)Nc1ccc(OCCCN2CCOCC2)cc1 [Compound 25, N-[4-(3-Morpholin-4-yl-propoxy)-phenyl]-2-phenyl-acetamide]",80

# Same assay, conditions: inhibitor conc. 50000 nM
row,Structure (SMILES),% Inh [%]
1,"O=C(Cc1cccnc1)Nc1cccc(OCCCN2CCOCC2)c1 [Compound 13, N-[3-(3-Morpholin-4-yl-propoxy)-phenyl]-2-pyridin-3-yl-acetamide]",75
2,"O=C(Nc1cccnc1)Nc1cccc(OCCCN2CCOCC2)c1 [Compound 16, 1-[3-(3-Morpholin-4-yl-propoxy)-phenyl]-3-pyridin-3-yl-urea]",95
